# According to patent publication US10899822B2, “Compositions comprising D-amino acid peptides and methods of production and use thereof for inhibiting autoantibodies” (The Board of Regents of the University of Oklahoma, priority 2013, dated 2021):
# Entries after “also recorded” stand apart in the source; their conditions may differ. Marks after values point to notes of the source that are not given here. Square brackets hold non-standard residues; d marks the D form. Ends that are not written are not given here. Peptide text beside a SMILES is read from it.
# Legend:
# AT1R autoantibodies = test: Binding of iodinated RID peptide to autoantibodies; details: iodine atom in the molecular structure
# Protocol: While therapeutic methods of using the RID peptides have been envisioned above, the scope of the presently disclosed inventive concepts also includes diagnostic uses of the RID peptides as well. The studies shown in FIGS. 12 and 13 were conducted at high concentrations (>250 μg/ml), and these concentrations are too high for study of absorption and use as part of a direct assay of serum binding to autoantibodies.
# [1] = test system: AT1R activating autoantibodies; test: Isolated rat cremaster artery contractility induced by serum of AT1R 2nd ECL peptide immunized rabbits; design: species or system rabbit; details: with ARB losartan
# Text: FIG. 4, Panel A illustrates the dose related contractile effect of serum from an AT1R 2nd ECL peptide immunized rabbit on an isolated rat cremaster artery. The in vitro contractile changes were expressed as % change (decrease) in diameter with the increasing dosage concentration (dilution). These effects are blocked by the selective angiotensin II receptor blocker (ARB) losartan.
# There was a significant increase of in vitro cremaster contractility (p<0.01) in the post-immune state compared to the pre-immune values.
# FIG. 5 illustrates the effect of in vitro incubation of the RID peptide with serum containing AT1R activating autoantibodies (rabbit) on cremaster artery contractility. […] The same response was observed when the serum was pre-incubated with the L-amino acid target peptide (FIG. 5, Panel B).
# Data provided herein were obtained with immunized rabbit serum containing autoantibodies that will stimulate AT1R receptors transfected into CHO cells. […] A bioassay for Angiotensin II-like activity using an isolated perfused cremaster artery in vitro has also been developed.
# [2] = In vitro stability in synthetic gastric fluid (SGF, pepsin+HCL, pH 1.2) at 37° C., HPLC; format: in vitro ADME; details: pH 1.2, 37° C.
# Protocol: FIG. 13 graphically illustrates an in vitro stability analysis of the native and RID peptides in synthetic gastric fluid (SGF, pepsin+HCL, pH 1.2) at 37° C., as measured by HPLC. This Figure indicates the rate of proteolysis of the AT1R-ECL2 L-amino acid peptide and the AT1R-ECL2 RID peptide under these conditions.
# In FIG. 13, the AT1R-ECL2 L-amino acid peptide and the AT1R-ECL2 RID peptide were each separately incubated in artificial gastric juice (SGF, pepsin+HCL, pH 1.2) at 37° C., and proteolysis of the peptides was measured by HPLC.
# β1AR-AAb [3] = test: Effective refractory period (ERP) in β1AR-immunized rabbits; format: in vivo, rabbit
# Text: FIG. 8 contains a flow chart depicting the protocol of the procedures performed in rabbits in a study to determine the effective refractory period (ERP) in atrial cells in rabbit-models with pre-immune, post-immune (β1AR-immunization), and post-immune plus β1AR-ECL2 RID peptide administration. The ERP inversely is one parameter of the susceptibility of the cardiac cells to induction of tachyarrhythmias.
# (§1) The RID peptide was utilized in a study measuring the effective refractory period (ERP) in five New Zealand white rabbits. The procedures performed are outlined in the flow chart of FIG. 8. The ERP was measured during a pre-immune state and following immunization with β1AR ECL2 peptide to generate autoantibodies thereto, as described previously (Li et al. Am J Physiol Heart Circ Physiol. (2014) 306:H422-428). This was followed by administration of T4 (40 μg/kg), and an additive effect was observed on induced atrial tachyarrhythmias with the appearance of AF in a significant percentage of the T4 treated animals. […] In addition, the ERP in the rabbits was measured following administration of the β1AR-ECL2 RID peptide 90 minutes after T4.
# FIG. 10 illustrates the mean ERP for an atrial catheter lead.
# β1AR-AAb [4] = test: Heart rate and sustained arrhythmias in β1AR-AAb + T4 excess animals; format: in vivo, rabbit
# Protocol: as §1
# β1AR-AAb [5] = test: cAMP production in β1AR-CHO cells stimulated by post-immune sera; format: cell-based, rabbit
# [6] = rabbit, in vivo
# [7] = In vitro stability in human serum at 37° C., HPLC; format: in vitro ADME
compound,measurement,setting,value
"AT1R-ECL2 RID peptide has been iodinated: AT1R-ECL2 RID peptide directly iodinated; iodine atom in the structure blocked binding ([dQ][dS][dE][dY][dH][dF][dA]; also: directly iodinated, place not given here)",binding to autoantibodies,AT1R autoantibodies,blocked binding
CCCCc1nc(Cl)c(CO)n1Cc1ccc(-c2ccccc2-c2nn[nH]n2)cc1 [losartan],contractile effect of immunized rabbit serum on isolated rat cremaster artery (% decrease in diameter),[1],blocked
"C[C@H](N)C(=O)N[C@@H](Cc1ccccc1)C(=O)N[C@@H](Cc1c[nH]cn1)C(=O)N[C@@H](Cc1ccc(O)cc1)C(=O)N[C@@H](CCC(=O)O)C(=O)N[C@@H](CO)C(=O)N[C@@H](CCC(N)=O)C(=O)O [AT1R-ECL2 L-amino acid peptide, AFHYESQ, reference compound] (H-AFHYESQ-OH; N-terminus and C-terminus assumed)",rate of proteolysis compared with the RID peptide,[2],proteolyzed at a much faster rate
"N[C@@H](Cc1cc(I)c(Oc2cc(I)c(O)c(I)c2)c(I)c1)C(=O)O [T4, thyroxine, reference compound]",effect on ERP,"β1AR-AAb [3]; post-immune + T4 (40 μg/kg), P<0.01",additive
same,#sustained arrhythmias/#induction attempts,β1AR-AAb [4]; Post-immune + T4,20/20**^#
same,Heart rate,β1AR-AAb [4]; Post-immune + T4,280 ± 56 beats/min
same,Sustained AF,β1AR-AAb [4]; Post-immune + T4,2/20
same,Sustained AFL,β1AR-AAb [4]; Post-immune + T4,0/20
same,Sustained AT,β1AR-AAb [4]; Post-immune + T4,2/20
same,Sustained JT,β1AR-AAb [4]; Post-immune + T4,2/20
same,Sustained ST,β1AR-AAb [4]; Post-immune + T4,11/20**
same,Sustained VT,β1AR-AAb [4]; Post-immune + T4,3/20
dcckpdnycr [β1AR-ECL2 RID peptide],"effect on ERP (msec), right atrial lead","β1AR-AAb [3]; post-immune + RID peptide IV, over 90 minutes",dramatic rise in ERP; also recorded: reverses the shortening of the ERP
same,effect on ERP,"β1AR-AAb [3]; post-immune + T4 + RID peptide, 90 minutes after T4",reversed the β1AR-AAb effects but not the effect caused by T4
same,#sustained arrhythmias/#induction attempts,β1AR-AAb [4]; Post-immune + T4 + β1AR-RID,6/20*^++
same,Heart rate,β1AR-AAb [4]; Post-immune + T4 + β1AR-RID,241 ± 35**^##+ beats/min
same,Sustained AF,β1AR-AAb [4]; Post-immune + T4 + β1AR-RID,0/20
same,Sustained AFL,β1AR-AAb [4]; Post-immune + T4 + β1AR-RID,0/20
same,Sustained AT,β1AR-AAb [4]; Post-immune + T4 + β1AR-RID,1/20
same,Sustained JT,β1AR-AAb [4]; Post-immune + T4 + β1AR-RID,2/20
same,Sustained ST,β1AR-AAb [4]; Post-immune + T4 + β1AR-RID,3/20^+
same,Sustained VT,β1AR-AAb [4]; Post-immune + T4 + β1AR-RID,0/20
same,sera-induced β1AR activation of cAMP production in β1AR-transfected cells,"β1AR-AAb [5]; sera pre-incubated with RID peptide, P<0.01",effectively blocked
same,ability of post-immune sera to stimulate cAMP in β1AR-CHO cells,β1AR-AAb [5]; sera taken 90 after IV injection of 1 mg/Kg BW,marked reduction of the ability to stimulate cAMP
same,anti-RID antibodies by ELISA (immunogenicity),[6],failed to demonstrate anti-RID antibodies
"C[C@@H](NC(=O)[C@@H](Cc1ccccc1)NC(=O)[C@@H](Cc1c[nH]cn1)NC(=O)[C@@H](Cc1ccc(O)cc1)NC(=O)[C@@H](CCC(=O)O)NC(=O)[C@@H](CO)NC(=O)[C@H](N)CCC(N)=O)C(=O)O [AT1R-ECL2 RID peptide, qseyhfa] (H-[dQ][dS][dE][dY][dH][dF][dA]-OH; N-terminus and C-terminus assumed)",peptide remaining intact,[7]; 24 hours (data not shown),80%
same,integrity at two hours,[7],resistance
same,integrity at two hours,[7]; listed as AT2R-ECL2 RID peptide,remained intact
same,integrity for four hours,[2]; four hours,remained intact
same,remaining at 6 h,"[2]; synthetic gastric fluid (SGF), six hours, read-out: peptide remaining",60%
